Measured values from patent US20120245177A1, “CRYSTALLINE LEVOFOLINIC ACID AND PROCESS FOR ITS PREPARATION” (GMT FINE CHEMICALS SA, priority 2011, published 2012).

Assay: Long-term stability test (ICH conditions)
Format: physicochemical
Details: for Related substances: N^5-N^10-diformyl-THF (B) (% area) / Related substances: N^10-CHO-dihydrofolic acid (F) (% area) / Related substances: N^10-CHO-folic acid (D) (% m/m) / Related substances: PABG (A) (% area) / Sum of all relates substances (% area) / Water content (%) / Assay of Levofolinic acid (% m/m) / Appearance / Aspect of a 1.0% m/V solution in Tris solution corrected at pH = 8.1: Absorbance at 420 nm / Related substances: 5-CHO-4H-Pteroic acid (E) (% area) / Related substances: Any individual unknown impurities / Related substances: Dihydrofolic acid (G) (% area) / Related substances: Folic acid (C) (% area) / Optical rotation of a 1.0% m/V solution in Tris solution corrected at pH = 8.1 / Content of Dextrofolinic acid (H): long-term: 25±2° C., 60±5% relative humidity; for Assay of Levofolinic acid (% m/m): anhydrous and solvent free basis; for Appearance: specification white to pale yellow powder
Experimental: Two specimens of the product obtained in example 1 are subjected to accelerated stability tests and long-term stability tests, respectively; the tests are carried out according to ICH conditions. Long-term: 25±2° C., 60±5% relative humidity Analytical methods used for the stability studies tests are described in the calcium levofolinate monograph of the European Pharmacopoeia.

Related substances: N^5-N^10-diformyl-THF (B) (% area) (6 months): <0.10 % area
Related substances: N^10-CHO-dihydrofolic acid (F) (% area) (6 months): 0.15 % area
Related substances: N^10-CHO-folic acid (D) (% m/m) (6 months): <0.10 % m/m
Related substances: PABG (A) (% area) (6 months): 0.10 % area
Sum of all relates substances (% area) (6 months): 0.70 % area
Water content (%) (6 months): 0.9%
Assay of Levofolinic acid (% m/m) (6 months): 98.8 % m/m
Appearance (6 months): Conform
Aspect of a 1.0% m/V solution in Tris solution corrected at pH = 8.1: Absorbance at 420 nm (9 months): 0.04
Related substances: 5-CHO-4H-Pteroic acid (E) (% area) (9 months): 0.35 % area
Related substances: Any individual unknown impurities (9 months): <0.10 % area
Related substances: Dihydrofolic acid (G) (% area) (9 months): <0.10 % area
Related substances: Folic acid (C) (% area) (9 months): <0.10 % area
Related substances: N^5-N^10-diformyl-THF (B) (% area) (9 months): <0.10 % area
Related substances: N^10-CHO-dihydrofolic acid (F) (% area) (9 months): 0.15 % area
Related substances: N^10-CHO-folic acid (D) (% m/m) (9 months): <0.10 % m/m
Related substances: PABG (A) (% area) (9 months): <0.10 % area
Sum of all relates substances (% area) (9 months): 0.55 % area
Water content (%) (9 months): 1.0%
Assay of Levofolinic acid (% m/m) (9 months): 99.4 % m/m
Appearance (9 months): Conform
Aspect of a 1.0% m/V solution in Tris solution corrected at pH = 8.1: Absorbance at 420 nm (12 months): 0.06
Related substances: 5-CHO-4H-Pteroic acid (E) (% area) (12 months): 0.34 % area
Related substances: Any individual unknown impurities (12 months): <0.10 % area
Related substances: Dihydrofolic acid (G) (% area) (12 months): <0.10 % area
Related substances: Folic acid (C) (% area) (12 months): <0.10 % area
Related substances: N^5-N^10-diformyl-THF (B) (% area) (12 months): <0.10 % area
Related substances: N^10-CHO-dihydrofolic acid (F) (% area) (12 months): 0.18 % area
Related substances: N^10-CHO-folic acid (D) (% m/m) (12 months): <0.10 % m/m
Related substances: PABG (A) (% area) (12 months): 0.11 % area
Sum of all relates substances (% area) (12 months): 0.63 % area
Water content (%) (12 months): 1.1%
Assay of Levofolinic acid (% m/m) (12 months): 99.4 % m/m
Appearance (12 months): Conform
Aspect of a 1.0% m/V solution in Tris solution corrected at pH = 8.1: Absorbance at 420 nm (18 months): 0.05
Optical rotation of a 1.0% m/V solution in Tris solution corrected at pH = 8.1 (18 months): −13.1°
Related substances: 5-CHO-4H-Pteroic acid (E) (% area) (18 months): 0.36 % area
Related substances: Any individual unknown impurities (18 months): <0.10 % area
Related substances: Dihydrofolic acid (G) (% area) (18 months): <0.10 % area
Related substances: Folic acid (C) (% area) (18 months): <0.10 % area
Related substances: N^5-N^10-diformyl-THF (B) (% area) (18 months): <0.10 % area
Related substances: N^10-CHO-dihydrofolic acid (F) (% area) (18 months): 0.17 % area
Related substances: N^10-CHO-folic acid (D) (% m/m) (18 months): <0.10 % m/m
Related substances: PABG (A) (% area) (18 months): 0.11 % area
Sum of all relates substances (% area) (18 months): 0.63 % area
Water content (%) (18 months): 0.9%
Assay of Levofolinic acid (% m/m) (18 months): 100.2 % m/m
Appearance (18 months): Conform
Aspect of a 1.0% m/V solution in Tris solution corrected at pH = 8.1: Absorbance at 420 nm (24 months): 0.06
Content of Dextrofolinic acid (H) (24 months): <0.10%
Related substances: 5-CHO-4H-Pteroic acid (E) (% area) (24 months): 0.31 % area
Related substances: Any individual unknown impurities (24 months): <0.10 % area
Related substances: Dihydrofolic acid (G) (% area) (24 months): <0.10 % area
Related substances: Folic acid (C) (% area) (24 months): <0.10 % area
Related substances: N^5-N^10-diformyl-THF (B) (% area) (24 months): <0.10 % area
Related substances: N^10-CHO-dihydrofolic acid (F) (% area) (24 months): 0.16 % area
Related substances: N^10-CHO-folic acid (D) (% m/m) (24 months): <0.10 % m/m
Related substances: PABG (A) (% area) (24 months): 0.13 % area
Sum of all relates substances (% area) (24 months): 0.66 % area
Water content (%) (24 months): 0.7%
Assay of Levofolinic acid (% m/m) (24 months): 99.4 % m/m
Appearance (24 months): Conform
Aspect of a 1.0% m/V solution in Tris solution corrected at pH = 8.1: Absorbance at 420 nm (36 months): 0.08
Content of Dextrofolinic acid (H) (36 months): <0.10%
Optical rotation of a 1.0% m/V solution in Tris solution corrected at pH = 8.1 (36 months): −14.9°
Related substances: 5-CHO-4H-Pteroic acid (E) (% area) (36 months): 0.33 % area
Related substances: Any individual unknown impurities (36 months): <0.10 % area
Related substances: Dihydrofolic acid (G) (% area) (36 months): <0.10 % area
Related substances: Folic acid (C) (% area) (36 months): <0.10 % area
Related substances: N^5-N^10-diformyl-THF (B) (% area) (36 months): <0.10 % area
Related substances: N^10-CHO-dihydrofolic acid (F) (% area) (36 months): 0.25 % area
Related substances: N^10-CHO-folic acid (D) (% m/m) (36 months): <0.10 % m/m
Related substances: PABG (A) (% area) (36 months): 0.16 % area
Sum of all relates substances (% area) (36 months): 0.73 % area
Water content (%) (36 months): 1.0%
Assay of Levofolinic acid (% m/m) (36 months): 99.6 % m/m
Appearance (36 months): Conform
Stability (conclusion from stability data of tables 2 and 3) (may resist unaltered during a shelf-life of up to three years): stable
Stability compared with known forms (versus calcium levofolinate of the known art or levofolinic acid amorphous of U.S. Pat. No. 5,134,235): better properties
Compound: Nc1nc(=O)c2c([nH]1)NC[C@H](CNc1ccc(C(=O)N[C@@H](CCC(=O)O)C(=O)O)cc1)N2C=O [Example 1, (6S)—N(5)-formyl-5,6,7,8-tetrahydrofolic acid]
